The assay addresses Envelope glycoprotein gp160 (Human immunodeficiency virus 1, UniProt Q6QLK5). Description: cell-free HIV fusion peptide-binding blockers – biochemical, uHTS, fluorescence dequenching, […] (AID 1986).

Activity calls are given as the source filed them. No stated cut-off is given here; in the data, actives have a measured IC50 and inactives only a lower limit.

Envelope glycoprotein gp160, sequence (Q6QLK5 whole entry, the tested form may be a part): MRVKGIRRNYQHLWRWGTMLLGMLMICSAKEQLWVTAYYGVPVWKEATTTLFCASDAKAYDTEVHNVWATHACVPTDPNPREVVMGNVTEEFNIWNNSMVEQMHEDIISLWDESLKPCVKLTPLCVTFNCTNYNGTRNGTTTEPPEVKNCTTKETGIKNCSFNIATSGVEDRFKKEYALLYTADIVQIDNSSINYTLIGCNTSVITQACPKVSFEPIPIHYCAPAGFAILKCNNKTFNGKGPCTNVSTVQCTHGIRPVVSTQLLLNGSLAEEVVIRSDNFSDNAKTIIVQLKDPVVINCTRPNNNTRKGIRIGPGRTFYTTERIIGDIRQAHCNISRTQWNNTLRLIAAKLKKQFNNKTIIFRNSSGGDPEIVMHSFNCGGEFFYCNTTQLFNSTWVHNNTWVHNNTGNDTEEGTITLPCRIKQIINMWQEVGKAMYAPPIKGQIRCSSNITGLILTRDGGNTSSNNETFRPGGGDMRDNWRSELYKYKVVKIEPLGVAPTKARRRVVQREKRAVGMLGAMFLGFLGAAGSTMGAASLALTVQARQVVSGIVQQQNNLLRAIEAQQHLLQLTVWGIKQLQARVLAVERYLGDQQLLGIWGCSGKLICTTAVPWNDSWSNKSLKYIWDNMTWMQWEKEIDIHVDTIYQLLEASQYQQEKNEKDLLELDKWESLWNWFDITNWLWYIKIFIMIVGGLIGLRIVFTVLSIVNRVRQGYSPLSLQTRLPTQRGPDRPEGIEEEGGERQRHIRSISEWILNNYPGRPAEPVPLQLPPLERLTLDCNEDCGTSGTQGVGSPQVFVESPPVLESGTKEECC

In general, IC50 refers to the concentration needed to halve the response being measured. As for `COc1ccc(C(=O)Nc2ccccc2C(=O)O)cc1NC(=O)C(c1ccccc1)c1ccccc1`, the IC50 is 14.1 µM (active).
For the compound `CCOC(=O)c1c(N2C(=O)Nc3cc(Cl)c(Cl)cc3N2O)sc2c1CCCCC2`, the IC50 is 22.3 µM (active).

(Values after ChEMBL document CHEMBL1201862, “PubChem BioAssay data set” (2004).)
